Results taken from ChEMBL document CHEMBL5346977, “Discovery of Novel d-(+)-Biotin-Conjugated Resorcinol Dibenzyl Ether-Based PD-L1 Inhibitors for Targeted Cancer Immunotherapy” (J Med Chem, 2023).
Calls of active or inactive are those of the source. The rule behind the calls is not given here.

Assays:
[1] = molecular target: T1, Programmed cell death protein 1/Programmed cell death 1 ligand 1 (Homo sapiens) (UniProt Q15116+Q9NZQ7); assay: Inhibition of GST-tagged PD-1 (unknown origin)/His-tagged PD-L1 (unknown origin) interaction at 100 nM by HTRF binding assay relative to control; type: protein-complex assay
[2] = molecular target: T1, Programmed cell death protein 1/Programmed cell death 1 ligand 1 (Homo sapiens); assay: Inhibition of GST-tagged PD-1 (unknown origin)/His-tagged PD-L1 (unknown origin) interaction at 10 nM by HTRF binding assay relative to control; type: protein-complex assay
[3] = molecular target: T2, Programmed cell death protein 1/Programmed cell death 1 ligand 1 (Homo sapiens, UniProt Q9NZQ7); assay: Inhibition of GST-tagged PD-1 (unknown origin)/His-tagged PD-L1 (unknown origin) interaction by HTRF binding assay relative to control; type: protein-complex assay
[4] = MRT (0 to t) in Sprague-Dawley rat at 1 mg/kg, iv administered as single dose and measured after 48 hrs by HPLC-MS/MS analysis; type: ADME, organism-based; conditions: in vivo
[5] = molecular target: T2, Programmed cell death protein 1/Programmed cell death 1 ligand 1; assay: Inhibition of interaction of PD-1 (unknown origin) expressed in Jurkat T cells carrying luciferase reporter under the control of NFAT promoter/PD-L1 (unknown origin) expressed in CHO cells co-expressing TCR ligand and T-cell surrogate pretreated with CHO cells for 0.5 hrs followed by Jurkat T cell addition and measured after 5 hrs by luminescence based analysis
[6] = MRT (0 to infinity) in Sprague-Dawley rat at 1 mg/kg, iv administered as single dose and measured after 48 hrs by HPLC-MS/MS analysis; type: ADME, organism-based; conditions: in vivo
B16-F10 [7] = assay: Antitumor activity against mouse B16-F10 cells implanted in BALB/c mouse assessed as reduction in tumor growth inhibition at 50 mg/kg, ip administered once daily for 14 days relative to control; type: functional; conditions: B16-F10, 336 h, time 14 day, read-out: TGI
[8] = Apparent volume of distribution in Sprague-Dawley rat at 1 mg/kg, iv administered as single dose and measured after 48 hrs by HPLC-MS/MS analysis; type: ADME, organism-based; conditions: in vivo, read-out: Vz
[9] = Toxicity in allogenic BALB/c mouse implanted with mouse B16-F10 cells assessed as inflammatory cell infiltration in colon at 50 mg/kg, ip by H&E staining based analysis; type: organism-based; conditions: in vivo
[10] = AUC (0 to t) in Sprague-Dawley rat at 1 mg/kg, iv administered as single dose and measured after 48 hrs by HPLC-MS/MS analysis; type: ADME, organism-based; parameters: dose 1 mg/kg, time 48 hrs, route iv; conditions: in vivo
[11] = Tmax in Sprague-Dawley rat at 1 mg/kg, iv administered as single dose and measured after 48 hrs by HPLC-MS/MS analysis; type: ADME, organism-based; conditions: in vivo
B16-F10 [12] = assay: Antitumor immunity against mouse B16-F10 cells implanted in allogenic BALB/c mouse assessed as increase in CD3+ T cells at 50 mg/kg, ip by flow cytometric analysis (reference value: 2.51%); type: functional
HepG2 = assay: Antitumor immunity activity against human HepG2 cells expressing human PD-L1 co-cultured with human Jurkat T cells expressing human PD-1 assessed as reduction in cell viability at 10 uM incubated for 48 hrs by CCK8 assay relative to control; type: functional
[13] = AUC (0 to infinity) in Sprague-Dawley rat at 1 mg/kg, iv administered as single dose and measured after 48 hrs by HPLC-MS/MS analysis; type: ADME, organism-based; parameters: dose 1 mg/kg, time 48 hrs, route iv; conditions: in vivo
[14] = Clearance in Sprague-Dawley rat at 1 mg/kg, iv administered as single dose and measured after 48 hrs by HPLC-MS/MS analysis; type: ADME, organism-based; conditions: in vivo
[15] = Toxicity in allogenic BALB/c mouse implanted with mouse B16-F10 cells assessed as severe crypt necrosis in colon at 50 mg/kg, ip by H&E staining based analysis; type: organism-based; conditions: in vivo
[16] = Half-life in Sprague-Dawley rat at 1 mg/kg, iv administered as single dose and measured after 48 hrs by HPLC-MS/MS analysis; type: ADME, organism-based; conditions: in vivo
[17] = Initial drug concentration in Sprague-Dawley rat at 1 mg/kg, iv administered as single dose and measured after 48 hrs by HPLC-MS/MS analysis; type: ADME, organism-based; conditions: in vivo
[18] = molecular target: Programmed cell death 1 ligand 1 (Homo sapiens, UniProt Q9NZQ7); assay: Binding affinity to human PD-L1 at 20 uM by SPR analysis
[19] = molecular target: T1, Programmed cell death protein 1/Programmed cell death 1 ligand 1 (Homo sapiens); assay: Inhibition of GST-tagged PD-1 (unknown origin)/His-tagged PD-L1 (unknown origin) interaction at 10 uM by HTRF binding assay; type: protein-complex assay
[20] = molecular target: Programmed cell death 1 ligand 1 (Mus musculus) (UniProt Q9EP73); assay: Binding affinity to mouse PD-L1 at 20 uM by SPR analysis
Sequence of Programmed cell death 1 ligand 1 (Mus musculus) (Q9EP73 whole entry): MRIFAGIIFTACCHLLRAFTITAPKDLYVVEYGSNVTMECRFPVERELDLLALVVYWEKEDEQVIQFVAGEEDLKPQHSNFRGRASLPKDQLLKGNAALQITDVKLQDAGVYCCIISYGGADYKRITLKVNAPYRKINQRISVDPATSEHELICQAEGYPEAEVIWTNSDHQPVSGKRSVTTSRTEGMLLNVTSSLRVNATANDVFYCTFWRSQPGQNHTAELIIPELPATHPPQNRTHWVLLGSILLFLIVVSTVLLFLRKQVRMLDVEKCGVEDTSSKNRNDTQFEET

T2 sequence (Q15116 whole entry): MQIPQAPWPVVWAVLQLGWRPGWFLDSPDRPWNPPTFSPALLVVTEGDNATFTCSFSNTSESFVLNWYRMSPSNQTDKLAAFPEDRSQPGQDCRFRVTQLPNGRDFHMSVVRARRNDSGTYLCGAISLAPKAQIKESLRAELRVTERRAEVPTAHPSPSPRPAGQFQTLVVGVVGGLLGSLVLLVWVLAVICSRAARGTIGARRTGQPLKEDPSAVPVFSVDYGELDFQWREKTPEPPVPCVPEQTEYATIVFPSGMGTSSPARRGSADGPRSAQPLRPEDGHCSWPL
T2 sequence (Q9NZQ7 whole entry): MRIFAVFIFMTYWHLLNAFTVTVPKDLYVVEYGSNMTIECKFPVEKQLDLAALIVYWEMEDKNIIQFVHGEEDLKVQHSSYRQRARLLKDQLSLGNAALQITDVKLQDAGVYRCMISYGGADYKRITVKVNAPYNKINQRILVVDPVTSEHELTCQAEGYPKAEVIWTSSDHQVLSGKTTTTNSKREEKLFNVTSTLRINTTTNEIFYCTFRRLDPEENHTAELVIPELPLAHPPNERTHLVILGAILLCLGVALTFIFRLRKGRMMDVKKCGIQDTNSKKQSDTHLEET
Sequence of Programmed cell death 1 ligand 1 (Q9NZQ7 whole entry): as above

SMILES | inhibition [1] [%] | inhibition [2] [%] | also measured
Cc1c(COc2cc(OCc3cccc(C#N)c3)c(CNC(C)(C)C(=O)N3CCN(C(=O)CCCC[C@H]4SC[C@H]5NC(=O)N[C@H]54)CC3)cc2Cl)cccc1-c1ccc2c(c1)OCCO2 | 59.3 | 9.1 | 
Cc1c(COc2cc(OCc3cccc(C#N)c3)c(CNC(C)(C)C(=O)NC3CCN(C(=O)CCCC[C@H]4SC[C@H]5NC(=O)N[C@H]54)CC3)cc2Cl)cccc1-c1ccc2c(c1)OCCO2 | 50.1 | 3.7 | 
Cc1c(COc2cc(OCc3cccc(C#N)c3)c(CN3CCCCC3C(=O)NCCCNC(=O)CCCC[C@@H]3SC[C@@H]4NC(=O)N[C@@H]43)cc2Cl)cccc1-c1ccccc1 (stereo partly specified) | 104 | 85.2 | IC50 [3]: 5.6 nM
Cc1c(COc2cc(OCc3cccc(C#N)c3)c(CN3CCCCC3C(=O)NC3CCN(C(=O)CCCC[C@@H]4SC[C@@H]5NC(=O)N[C@@H]54)CC3)cc2Cl)cccc1-c1ccccc1 (stereo partly specified) | 99.2 | 29.1 | IC50 [3]: 11.6 nM
Cc1c(COc2cc(OCc3cccc(C#N)c3)c(CN3CCCCC3C(=O)N3CCN(C(=O)CCCC[C@@H]4SC[C@@H]5NC(=O)N[C@@H]54)CC3)cc2Cl)cccc1-c1ccc2c(c1)OCCO2 (stereo partly specified) | 80.9 | 17.3 | 
Cc1c(COc2cc(OCc3cccc(C#N)c3)c(CNC(C)(C)C(=O)NCCNC(=O)CCCC[C@H]3SC[C@H]4NC(=O)N[C@H]43)cc2Cl)cccc1-c1ccc2c(c1)OCCO2 | 66.9 | -4 | 
Cc1c(COc2cc(OCc3cccc(C#N)c3)c(CN3CCCCC3C(=O)NCCNC(=O)CCCC[C@H]3SC[C@H]4NC(=O)N[C@H]43)cc2Cl)cccc1-c1ccc2c(c1)OCCO2 (stereo partly specified) | 88.5 | 26.8 | 
Cc1c(COc2cc(OCc3cccc(C#N)c3)c(CN3CCCCC3C(=O)NC3CCN(C(=O)CCCC[C@H]4SC[C@H]5NC(=O)N[C@H]54)CC3)cc2Cl)cccc1-c1ccc2c(c1)OCCO2 (stereo partly specified) | 84.7 | 11.2 | 
Cc1c(COc2cc(OCc3cccc(C#N)c3)c(CNC(C)(C)C(=O)N3CCC(NC(=O)CCCC[C@H]4SC[C@H]5NC(=O)N[C@H]54)CC3)cc2Cl)cccc1-c1ccc2c(c1)OCCO2 | 42.6 | -7.5 | 
Cc1c(COc2cc(OCc3cccc(C#N)c3)c(CN3CCCCC3C(=O)N(C)CCNC(=O)CCCC[C@@H]3SC[C@@H]4NC(=O)N[C@@H]43)cc2Cl)cccc1-c1ccc2c(c1)OCCO2 (stereo partly specified) | 82.6 | 20.1 | 
Cc1c(COc2cc(OCc3cccc(C#N)c3)c(CNC(C)(C)C(=O)NCCNC(=O)CCCC[C@@H]3SC[C@@H]4NC(=O)N[C@@H]43)cc2Cl)cccc1-c1ccccc1 | 79.2 | 21.3 | 
Cc1c(COc2cc(OCc3cccc(C#N)c3)c(CNC(C)(C)C(=O)NC3CCN(C(=O)CCCC[C@H]4SC[C@H]5NC(=O)N[C@H]54)CC3)cc2Cl)cccc1-c1ccccc1 | 74.6 | 5.9 | 
Cc1c(COc2cc(OCc3cccc(C#N)c3)c(CN3CCCCC3C(=O)N3CCC(NC(=O)CCCC[C@@H]4SC[C@@H]5NC(=O)N[C@@H]54)CC3)cc2Cl)cccc1-c1ccccc1 (stereo partly specified) | 97.2 | 100 | IC50 [3]: 4 nM
Cc1c(COc2cc(OCc3cccc(C#N)c3)c(CNC(C)(C)C(=O)N3CCC(NC(=O)CCCC[C@@H]4SC[C@@H]5NC(=O)N[C@@H]54)CC3)cc2Cl)cccc1-c1ccccc1 | 64.1 | 6.8 | 
Cc1c(COc2cc(OCc3cccc(C#N)c3)c(CNC(C)(C)C(=O)N3CCN(C(=O)CCCC[C@@H]4SC[C@@H]5NC(=O)N[C@@H]54)CC3)cc2Cl)cccc1-c1ccccc1 | 68.1 | 11.2 | 
Cc1c(COc2cc(OCc3cccc(C#N)c3)c(CNC(C)(C)C(=O)NCCCNC(=O)CCCC[C@@H]3SC[C@@H]4NC(=O)N[C@@H]43)cc2Cl)cccc1-c1ccccc1 | 81.5 | 10.4 | 
Cc1c(COc2cc(OCc3cccc(C#N)c3)c(CN3CCCCC3C(=O)NCCN)cc2Cl)cccc1-c1ccccc1 (stereo unspecified) |  |  | MRT last at 48 h [4]: 1.8 h; EC50 [5]: 4650 nM; MRT inf [6]: 2.3 h; inhibition in vivo at 50 mg/kg (B16-F10 [7]): 44.3%; Vd [8]: 5.3 L/kg; Activity [9]: Toxic; AUCt [10]: 1800 ng·h/mL; Tmax [11]: 4.98 min; Activity (B16-F10 [12]): 8.45%; Activity (HepG2): 31%; AUC [13]: 1830 ng·h/mL; clearance [14]: 8.33 mL/min/kg; Activity [15]: Toxic; half-life [16]: 6.4 h; C0 at 48 h [17]: 2630 ng/mL
O=C(O)CCCC[C@@H]1SC[C@@H]2NC(=O)N[C@@H]21 |  |  | Activity [18]: inactive; inhibition [19]: inactive; Activity [20]: inactive
Cc1c(COc2cc(OCc3cccc(C#N)c3)c(CN3CCCCC3C(=O)N3CCN(C(=O)CCCC[C@@H]4SC[C@@H]5NC(=O)N[C@@H]54)CC3)cc2Cl)cccc1-c1ccccc1 (stereo partly specified) | 102 | 93.1 | IC50 [3]: 3.4 nM
Cc1c(COc2cc(OCc3cccc(C#N)c3)c(CN3CCCCC3C(=O)N(C)CCNC(=O)CCCC[C@@H]3SC[C@@H]4NC(=O)N[C@@H]43)cc2Cl)cccc1-c1ccccc1 (stereo partly specified) | 104 | 34.9 | IC50 [3]: 10.8 nM
Cc1c(COc2cc(OCc3cccc(C#N)c3)c(CN3CCCCC3C(=O)N3CCC(NC(=O)CCCC[C@H]4SC[C@H]5NC(=O)N[C@H]54)CC3)cc2Cl)cccc1-c1ccc2c(c1)OCCO2 (stereo partly specified) | 90.6 | 13.4 | 
